In EP0377521B1, “High yield sodium hydrosulfite generation” (MORTON INTERNATIONAL, INC., priority 1989, dated 1990):

Assay: NaBH₄ hydrolysis half-life vs. pH
Type: physicochemical
Conditions: for HALF-LIFE: hydrolysis
Protocol: The pH flow profile becomes significant when related to the hydrolysis rate of the NaBH₄. Referring to the Table set forth below, the half-life of NaBH₄ is 3000 times longer at a pH of 6.0 compared to a pH of 2.5. Therefore, if the BOROL solution is added to a process stream having a pH of 2.5, the extent of the hydrolysis of the NaBH₄ is greater than if the BOROL solution and NaOH are added first to said process stream having a pH of 6.2 and the pH of said process stream is increased to 13.0, where the rate of hydrolysis of NaBH₄ is very slow (42.6 days). TABLE
TEMPERATURE = 25°C (77°F) LOG₁₀ (t½ ) = pH - (0.034 T - 1.92) [formula] t = MINUTES T = °K

HALF-LIFE (pH 2.5, 25°C (77°F)): 2e-06 min
HALF-LIFE (pH 4.0, 25°C (77°F)): 6.17e-05 min
HALF-LIFE (pH 5.0, 25°C (77°F)): 0.000617 min
HALF-LIFE (pH 5.5, 25°C (77°F)): 0.002 min
HALF-LIFE (pH 6.0, 25°C (77°F)): 0.00617 min
HALF-LIFE (pH 6.5, 25°C (77°F)): 0.02 min
HALF-LIFE (pH 7.0, 25°C (77°F)): 0.0617 min
HALF-LIFE (pH 8.0, 25°C (77°F)): 0.613 min
HALF-LIFE (pH 9.0, 25°C (77°F)): 6.1 min
HALF-LIFE (pH 10.0, 25°C (77°F)): 61 min
HALF-LIFE (pH 12.0, 25°C (77°F)): 6190 min
HALF-LIFE (pH 13.0, 25°C (77°F)): 61300 min
half-life at a pH of 6.0 compared to a pH of 2.5 (ratio of hydrolysis half-lives, pH 6.0 vs pH 2.5): 3000 times longer
SMILES: [BH4-].[Na+] [NaBH₄, sodium borohydride]
